Values quoted from earlier work in PMC3160472 (Nature protocols, 2011).
Where two headings read alike, the source gives them in different places.

Tests used:
[1] = target: NT (N-terminal domain of IP3 receptor, residues 1-604 of IP3R1); conditions: for Kd: read-out: KD, NT, 3H-IP3, Ca2+-free CLM, 4 °C, equilibrium competition binding with 3H-IP3, mean ± S.E.M., n = 3
[2] = target: NT (N-terminal domain of IP3 receptor, residues 1-604 of IP3R1); conditions: read-out: KD, NT, FP, Ca2+-free CLM, 4 °C, mean ± S.E.M., n = 3
[3] = target: IBC (IP3-binding core of IP3 receptor, residues 224-604 of IP3R1); conditions: read-out: KD, IBC, 3H-IP3; Ca2+-free CLM, 4 °C, equilibrium competition binding with 3H-IP3, mean ± S.E.M., n = 3
[4] = target: IBC (IP3-binding core of IP3 receptor, residues 224-604 of IP3R1); conditions: read-out: KD, IBC, FP, Ca2+-free CLM, 4 °C, mean ± S.E.M., n = 3
[5] = target: NT (N-terminal domain of IP3 receptor, residues 1-604 of IP3R1); conditions: read-out: KD, saturation radioligand binding; 'purified' NT, 3H-IP3, in TEM (pH 8.3)

Kd [1] [nM]	Kd [2] [nM]	Kd [3] [nM]	Kd [4] [nM]	Kd [5] [nM]	KD for the NT in TEM relative to Ca2+-free CLM ([1]; TEM (pH 8.3) versus Ca2+-free CLM (pH 7.0), printed as higher in TEM)	Molecule
6.2 ± 1.6	8.6 ± 0.2	0.7 ± 0.1	0.9 ± 0.1			Nc1ncnc2c1ncn2[C@@H]1O[C@H](CO)[C@@H](O[C@H]2O[C@H](CO)[C@@H](OP(=O)(O)O)[C@H](OP(=O)(O)O)[C@H]2O)[C@H]1OP(=O)(O)O [Adenophostin A]
65 ± 8	95 ± 7	8.7 ± 1.8	9.2 ± 0.8	2.2 ± 0.5	~ 40 fold	O=P([O-])([O-])O[C@@H]1[C@H](O)[C@H](O)[C@@H](OP(=O)([O-])[O-])[C@H](OP(=O)([O-])[O-])[C@H]1O.[K+].[K+].[K+].[K+].[K+].[K+] [IP3, D-myo-inositol-1,4,5-trisphosphate, hexapotassium salt]
11.8 ± 0.2	12.5 ± 0.6	2 ± 0.2	3 ± 0.1			D-2-O-(2-(3-(5-fluoresceinyl)thioureido)ethyl)-myo-inositol 1,4,5-trisphosphate [FITC-IP3]
